± gives the expanded uncertainty stated by the source.
Assay: xn = mol fraction of the nth substance listed
Details: 101 kPa, Liquid; for speed of sound: Sing-around technique in a fixed-path interferometer; for mass density: Vibrating tube method

c1ccncc1 [pyridine] + CN1CCCC1=O
Details	mass density, 293.15 K [kg/m3]	mass density, 298.15 K [kg/m3]	mass density, 303.15 K [kg/m3]	mass density, 308.15 K [kg/m3]	speed of sound, 293.15 K [m/s]	speed of sound, 298.15 K [m/s]	speed of sound, 303.15 K [m/s]	speed of sound, 308.15 K [m/s]
x2 = 0.1276	994.55 ± 1	989.82 ± 1	985.09 ± 1	980.3 ± 1	1467.8 ± 1.2	1445 ± 1.2	1425.5 ± 1.2	1405.3 ± 1.2
x2 = 0.1779	998.64 ± 1	993.95 ± 1	989.28 ± 1	984.53 ± 1	1478.4 ± 1.2	1455.9 ± 1.2	1436.8 ± 1.2	1416.4 ± 1.2
x2 = 0.2348	1003 ± 1	998.35 ± 1	993.72 ± 1	988.98 ± 1	1490.6 ± 1.2	1468.4 ± 1.2	1449.4 ± 1.2	1429.1 ± 1.2
x2 = 0.2664	1005.29 ± 1	1000.65 ± 1	996.04 ± 1	991.33 ± 1	1497.6 ± 1.2	1475.5 ± 1.2	1456.2 ± 1.2	1436.2 ± 1.2
x2 = 0.3291	1009.56 ± 1	1004.94 ± 1	1000.35 ± 1	995.65 ± 1	1511.1 ± 1.2	1489 ± 1.2	1469.8 ± 1.2	1449.7 ± 1.2
x2 = 0.3707	1012.2 ± 1	1007.56 ± 1	1002.99 ± 1	998.31 ± 1	1519.6 ± 1.2	1498 ± 1.2	1478.9 ± 1.2	1458.8 ± 1.2
x2 = 0.4328	1015.86 ± 1	1011.21 ± 1	1006.65 ± 1	1001.96 ± 1	1532.2 ± 1.2	1510.7 ± 1.2	1491.6 ± 1.2	1471.5 ± 1.2
x2 = 0.4749	1018.16 ± 1	1013.51 ± 1	1008.96 ± 1	1004.25 ± 1	1540.4 ± 1.2	1518.6 ± 1.2	1499.5 ± 1.2	1479.4 ± 1.2
x2 = 0.5215	1020.5 ± 1	1015.82 ± 1	1011.28 ± 1	1006.63 ± 1	1548.4 ± 1.3	1527 ± 1.2	1508.3 ± 1.2	1487.9 ± 1.2
x2 = 0.5647	1022.48 ± 1	1017.8 ± 1	1013.27 ± 1	1008.63 ± 1	1555.7 ± 1.3	1534.4 ± 1.2	1515.3 ± 1.2	1495.4 ± 1.2
x2 = 0.6364	1025.43 ± 1	1020.74 ± 1	1016.23 ± 1	1011.56 ± 1	1565.6 ± 1.3	1544.5 ± 1.2	1525.6 ± 1.2	1505.9 ± 1.2
x2 = 0.6778	1026.91 ± 1	1022.19 ± 1	1017.71 ± 1	1013.05 ± 1	1569.8 ± 1.3	1549 ± 1.3	1530.8 ± 1.2	1510.5 ± 1.2
x2 = 0.7312	1028.58 ± 1	1023.87 ± 1	1019.36 ± 1	1014.76 ± 1	1574.5 ± 1.3	1553.6 ± 1.3	1535.6 ± 1.2	1515.4 ± 1.2
x2 = 0.7701	1029.65 ± 1	1024.9 ± 1	1020.4 ± 1	1015.79 ± 1	1576.5 ± 1.3	1556.2 ± 1.3	1537.8 ± 1.2	1518.1 ± 1.2
x2 = 0.8321	1031.09 ± 1	1026.29 ± 1	1021.76 ± 1	1017.16 ± 1	1577.6 ± 1.3	1557.6 ± 1.3	1539.3 ± 1.2	1519.7 ± 1.2
x2 = 0.8711	1031.8 ± 1	1026.99 ± 1	1022.43 ± 1	1017.79 ± 1	1576.7 ± 1.3	1556.8 ± 1.3	1538.9 ± 1.2	1519.1 ± 1.2
x2 = 0.9011	1032.27 ± 1	1027.41 ± 1	1022.83 ± 1	1018.17 ± 1	1575.4 ± 1.3	1555.7 ± 1.3	1537.4 ± 1.2	1517.6 ± 1.2
x2 = 0.9312	1032.65 ± 1	1027.76 ± 1	1023.14 ± 1	1018.45 ± 1	1573.3 ± 1.3	1553.5 ± 1.3	1535.4 ± 1.2	1515.6 ± 1.2

— the NIST ThermoML archive (doi:10.1021/je301353z)
